Laboratory results taken from publication PMC3953223 (Biochemistry, 2013).
pIC50, pKd: −log10 of the molar value. Converted amounts (≈) assume the structure as drawn.

Legend:
PfENR = conditions: cited from earlier work
TgENR = target: T1, TgENR (Toxoplasma gondii, UniProt Q6UCJ9); assay: Thermal shift assay, ligand binding to TgENR alone; conditions: read-out: Kd of NAD^+ binding to TgENR; TSA, binary complex
T1 sequence (Q6UCJ9 103-417 limits assumed): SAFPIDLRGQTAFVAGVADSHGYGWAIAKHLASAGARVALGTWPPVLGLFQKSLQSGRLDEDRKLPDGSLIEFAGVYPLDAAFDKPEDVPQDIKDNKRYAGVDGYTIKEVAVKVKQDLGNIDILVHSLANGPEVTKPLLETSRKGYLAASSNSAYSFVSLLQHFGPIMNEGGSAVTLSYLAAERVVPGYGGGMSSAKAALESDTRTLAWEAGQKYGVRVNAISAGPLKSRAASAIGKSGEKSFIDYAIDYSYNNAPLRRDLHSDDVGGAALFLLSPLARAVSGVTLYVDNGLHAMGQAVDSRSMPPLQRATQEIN

[1] = tested on: T. gondii tachyzoites (RH-YFP); assay type: cell-based, Toxoplasma gondii; conditions: 72 h
T. gondii parasites = conditions: read-out: IC50, growth of T. gondii parasites; cited from earlier work

With NC(=O)C1=CN([C@@H]2O[C@H](COP(=O)(O)OP(=O)(O)OC[C@H]3O[C@@H](n4cnc5c(N)ncnc54)[C@H](O)[C@@H]3O)[C@@H](O)[C@H]2O)C=CC1 [NADH, nicotinamide adenine dinucleotide] as the compound, how does the pKd (PfENR; read-out: Kd for NADH, PfENR) read?
Its pKd is 4.29.

With NC(=O)c1ccc[n+]([C@@H]2O[C@H](COP(=O)([O-])OP(=O)(O)OC[C@H]3O[C@@H](n4cnc5c(N)ncnc54)[C@H](O)[C@@H]3O)[C@@H](O)[C@H]2O)c1 [NAD^+] as the compound, how does the pKd (TgENR) read?
The pKd was 2.22.

For Oc1cc(Cl)ccc1Oc1ccc(Cl)cc1Cl [Triclosan, triclosan], which “T. gondii MIC50” value ([1]; RH-YFP tachyzoites in HFF, ± SEM) is on record?
The value was 2.8 ± 0.2 µM.

And the MIC50 ([1]; Toxoplasma gondii, read-out: T. gondii MIC50)?
Its MIC50 is 2.8 µM (≈ 0.811 µg/mL).

What about the “forward rate constant of tight binding complex formation” value (PfENR; PfENR) of the same compound?
Its value is 0.055 s⁻¹.

And the pIC50 (T. gondii parasites)?
The pIC50 was about 6.70.
